According to article PMC7070897 (Molecules, 2020):
pIC50: −log10 of the molar value. “And” between values parts separate entries of the source, which are not always exact repeats. Equal entries are not always repeated. Where two headings read alike, the source gives them in different places. Positions of bridges follow the written chain, without caps; N, C: chain ends. Residues, ends and D or L forms follow the SMILES beside them.

Columns and labels:
[1] = on-resin Ugi-4CR macrocyclisation (stapling), Lys side-chain amine (i) to Asp/Glu side-chain acid (i+4): 1) paraformaldehyde 4 eq, pyrrolidine 4 eq, THF/MeOH 1:1, 30 min (imine); 2) isocyanide R-NC 4 eq, DCM/TFE 1:1, overnight; then TFA/TIS/H2O cleavage; conditions: the molecule shown is the open-chain precursor, 18.0 h, 3 steps
[2] = system: Phytophthora infestans (Mont.) de Bary; conditions: for IC50: read-out: IC50 in μM, Phythophtora Infestants, Figures 1B and 2C, 96-well plate, OD 405 nm seven days after inoculation, triplicate, IC50 from dose-response curves by linear regression; for pIC50: read-out: Half maximal inhibitory concentration, Phytophthora Infestans
[3] = read-out: Half maximal inhibitory concentration, Septoria Tritici
[4] = read-out: Half maximal inhibitory concentration, Botrytis Cinerea

| Molecule | pIC50 (Septoria tritici Desm.; [3]) | pIC50 (Botrytis cinerea Pers.; [4]) | pIC50 [2] | other results |
| --- | --- | --- | --- | --- |
| C=NCCCC[C@H](NC(=O)[C@H](CCCCNC(=O)OC(C)(C)C)NC(=O)[C@H](CC(C)C)NC(C)=O)C(=O)N[C@@H](CC(C)C)C(=O)N[C@@H](CC(C)C)C(=O)N[C@@H](CCCCNC(=O)OC(C)(C)C)C(=O)N[C@@H](CCC(=O)O)C(=O)N[C@@H](CC(C)C)C(=O)N[C@@H](CC(C)C)C(=O)N[C@@H](CCCCNC(=O)OC(C)(C)C)C(=O)N[C@@H](CCCCNC(=O)OC(C)(C)C)C(=O)N[C@@H](CC(C)C)C(N)=O |  |  |  | ring closure, conversion by HPLC (% crude UHPLC purity after cleavage) ([1]; 21-membered ring): 68 |
| Ac-LKKLLKKLLKKL-NH2 [Peptide 5, Ac-LKKLLKKLLKKL] |  |  |  | pIC50 (Septoria tritici Desm.): 5.35; pIC50 (Botrytis cinerea Pers.): < 4.30; IC50 [2]: 5.4 µM |
| Ac-(N-(2-(n-dodecylamino)-2-oxoethyl)-(cyclo-8,12))-[LAKLLKAKAKAD]-NH2 (sidechain bridge or staple) [Peptide 3] | 5.23 | 5.01 | 4.84 |  |
| Ac-(N-(2-(n-butylamino)-2-oxoethyl)-(cyclo-8,12))-[LAKLLKAKAKAD]-NH2 (sidechain bridge or staple) [Peptide 2] | < 4.30 | < 4.30 | 4.58 |  |
| Ac-(cyclo-8,12))-[LAKLLKAKAKAD]-NH2 (sidechain bridge or staple) [Peptide 4] | < 4.30 | < 4.30 | 4.68 |  |
| Ac-LAKLLKAKAKAD-NH2 [Peptide 1] | < 4.30 | < 4.30 | < 4.30 |  |
| C=NCCCC[C@H](NC(=O)[C@H](C)NC(=O)[C@H](CCCCNC(=O)OC(C)(C)C)NC(=O)[C@H](CC(C)C)NC(=O)[C@H](CC(C)C)NC(=O)[C@H](CCCCNC(=O)OC(C)(C)C)NC(=O)[C@H](C)NC(=O)[C@H](CC(C)C)NC(C)=O)C(=O)N[C@@H](C)C(=O)N[C@@H](CCCCNC(=O)OC(C)(C)C)C(=O)N[C@@H](C)C(=O)N[C@@H](CC(=O)O)C(N)=O |  |  |  | ring closure, conversion by HPLC (% crude UHPLC purity after cleavage) ([1]; 20-membered ring): 63 and 54 |
| CC(=O)N[C@@H](CC(C)C)C(=O)N[C@@H](CCCCN)C(=O)N[C@@H](CCCCN)C(=O)N[C@@H](CC(C)C)C(=O)N[C@@H](CC(C)C)C(=O)N[C@@H](CCCCN)C(=O)N[C@@H](CCCCN)C(=O)N[C@H]1CCCCNC(=O)CC[C@@H](C(N)=O)NC(=O)[C@H](CCCCN)NC(=O)[C@H](CCCCN)NC(=O)[C@H](CC(C)C)NC1=O [Peptide 6, Ac-(cyclo-8,12))-[LKKLLKKKLKKE]-NH2] (Ac-LKKLLKKKLKKE-NH2; lactam 8-12) |  |  |  | pIC50 (Septoria tritici Desm.): 4.78; pIC50 (Botrytis cinerea Pers.): < 4.30; IC50 [2]: 18 µM |
